According to PubChem BioAssay (NCI):
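How tested: cells in 96-well plates exposed to compound for 48 hours at five concentrations. GI50 = concentration required for 50% inhibition of growth. TGI: concentration producing complete growth inhibition.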 Where a SMILES comes first, the peptide text is derived from it. [ ]: non-standard residue; d: D form. ξ: configuration not given here. ξThz(5,5-Me2) = CC1(C)SCNC1C(=O)O

Experiments:
Assay in all cases: DTP human tumour cell line panel, 48 h
EKVX NSCLC = system: EKVX NSCLC
HCC-2998 colon = system: HCC-2998 colon
UACC-257 melanoma = system: UACC-257 melanoma
IGROV1 ovarian = system: IGROV1 ovarian
OVCAR-4 ovarian = system: OVCAR-4 ovarian
UACC-62 melanoma = system: UACC-62 melanoma
TK-10 renal = system: TK-10 renal
NCI-H23 lung = system: NCI-H23 lung
OVCAR-8 ovarian = system: OVCAR-8 ovarian
ACHN renal = system: ACHN renal
SF-539 CNS = system: SF-539 CNS
U251 CNS = system: U251 CNS
SK-MEL-28 melanoma = system: SK-MEL-28 melanoma
BT-549 breast = system: BT-549 breast
SN12C renal = system: SN12C renal
HCT-116 colon = system: HCT-116 colon
SNB-19 CNS = system: SNB-19 CNS
SK-OV-3 ovarian = system: SK-OV-3 ovarian
COLO 205 colon = system: COLO 205 colon
DU-145 prostate = system: DU-145 prostate
NCI-H460 lung = system: NCI-H460 lung
NCI-H226 lung = system: NCI-H226 lung
SF-295 CNS = system: SF-295 CNS
NCI-H522 lung = system: NCI-H522 lung
LOX IMVI melanoma = system: LOX IMVI melanoma
T-47D breast = system: T-47D breast
A549 NSCLC = system: A549 NSCLC
SF-268 CNS = system: SF-268 CNS
HOP-62 NSCLC = system: HOP-62 NSCLC
HT29 colon = system: HT29 colon
UO-31 renal = system: UO-31 renal
786-0 renal = system: 786-0 renal
HOP-92 NSCLC = system: HOP-92 NSCLC
HL-60(TB) leukemia = system: HL-60(TB) leukemia
OVCAR-3 ovarian = system: OVCAR-3 ovarian
SNB-75 CNS = system: SNB-75 CNS
CAKI-1 renal = system: CAKI-1 renal
SK-MEL-5 melanoma = system: SK-MEL-5 melanoma
KM12 colon = system: KM12 colon
SW-620 colon = system: SW-620 colon
A498 renal = system: A498 renal
OVCAR-5 ovarian = system: OVCAR-5 ovarian
MDA-MB-231 breast = system: MDA-MB-231 breast
HCT-15 colon = system: HCT-15 colon
MCF7 breast = system: MCF7 breast
M14 melanoma = system: M14 melanoma
NCI/ADR-RES ovarian = system: NCI/ADR-RES ovarian
PC-3 prostate = system: PC-3 prostate
RPMI-8226 leukemia = system: RPMI-8226 leukemia
MDA-MB-435 = system: MDA-MB-435
MALME-3M melanoma = system: MALME-3M melanoma

Structure (SMILES): COc1cc(C=C2c3ccccc3C(=O)c3ccccc32)ccc1OCCCCOc1cc2c(cc1OC)C(=O)N1CCCC1C=N2 (stereo not given)
- GI50 (EKVX NSCLC): 1140 nM
- TGI (EKVX NSCLC): 3170 nM
- GI50 (HCC-2998 colon): 342 nM
- TGI (HCC-2998 colon): 816 nM
- GI50 (UACC-257 melanoma): 1090 nM
- TGI (UACC-257 melanoma): 2550 nM
- GI50 (IGROV1 ovarian): 321 nM
- TGI (IGROV1 ovarian): 804 nM
- GI50 (OVCAR-4 ovarian): 456 nM
- TGI (OVCAR-4 ovarian): 8450 nM
- GI50 (UACC-62 melanoma): 407 nM
- TGI (UACC-62 melanoma): 1470 nM
- GI50 (TK-10 renal): 302 nM
- TGI (TK-10 renal): 896 nM
- GI50 (NCI-H23 lung): 337 nM
- TGI (NCI-H23 lung): 1490 nM
- GI50 (OVCAR-8 ovarian): 310 nM
- TGI (OVCAR-8 ovarian): 1260 nM
- GI50 (ACHN renal): 525 nM
- TGI (ACHN renal): 1690 nM
- GI50 (SF-539 CNS): 352 nM
- TGI (SF-539 CNS): 1390 nM
- GI50 (U251 CNS): 249 nM
- TGI (U251 CNS): 704 nM
- GI50 (SK-MEL-28 melanoma): 192 nM
- TGI (SK-MEL-28 melanoma): 430 nM
- GI50 (BT-549 breast): 91.5 nM
- TGI (BT-549 breast): 542 nM
- GI50 (SN12C renal): 458 nM
- TGI (SN12C renal): 1880 nM
- GI50 (HCT-116 colon): 174 nM
- TGI (HCT-116 colon): 409 nM
- GI50 (SNB-19 CNS): 1020 nM
- TGI (SNB-19 CNS): 2560 nM
- GI50 (SK-OV-3 ovarian): 1410 nM
- TGI (SK-OV-3 ovarian): 3890 nM
- GI50 (COLO 205 colon): 469 nM
- TGI (COLO 205 colon): 1670 nM
- GI50 (DU-145 prostate): 208 nM
- TGI (DU-145 prostate): 479 nM
- GI50 (NCI-H460 lung): 703 nM
- TGI (NCI-H460 lung): 2350 nM
- GI50 (NCI-H226 lung): 1260 nM
- TGI (NCI-H226 lung): 3130 nM
- GI50 (SF-295 CNS): 765 nM
- TGI (SF-295 CNS): 2340 nM
- GI50 (NCI-H522 lung): 612 nM
- TGI (NCI-H522 lung): 9950 nM
- GI50 (LOX IMVI melanoma): 279 nM
- TGI (LOX IMVI melanoma): 890 nM
- GI50 (T-47D breast): 356 nM
- TGI (T-47D breast): 1780 nM
- GI50 (A549 NSCLC): 785 nM
- TGI (A549 NSCLC): 3220 nM
- GI50 (SF-268 CNS): 242 nM
- TGI (SF-268 CNS): 726 nM
- GI50 (HOP-62 NSCLC): 579 nM
- TGI (HOP-62 NSCLC): 1310 nM
- GI50 (HT29 colon): 278 nM
- TGI (HT29 colon): 1460 nM
- GI50 (UO-31 renal): 656 nM
- TGI (UO-31 renal): 2090 nM
- GI50 (786-0 renal): 448 nM
- TGI (786-0 renal): 1110 nM
- GI50 (HOP-92 NSCLC): 244 nM
- TGI (HOP-92 NSCLC): 1050 nM
- GI50 (HL-60(TB) leukemia): 142 nM
- TGI (HL-60(TB) leukemia): 389 nM
- GI50 (OVCAR-3 ovarian): 200 nM
- TGI (OVCAR-3 ovarian): 458 nM
- GI50 (SNB-75 CNS): 391 nM
- TGI (SNB-75 CNS): 1800 nM
- GI50 (CAKI-1 renal): 314 nM
- TGI (CAKI-1 renal): 1020 nM
- GI50 (SK-MEL-5 melanoma): 782 nM
- TGI (SK-MEL-5 melanoma): 2050 nM
- GI50 (KM12 colon): 227 nM
- TGI (KM12 colon): 608 nM
- GI50 (SW-620 colon): 214 nM
- TGI (SW-620 colon): 501 nM
- GI50 (A498 renal): 454 nM
- TGI (A498 renal): 1610 nM
- GI50 (OVCAR-5 ovarian): 581 nM
- TGI (OVCAR-5 ovarian): 1450 nM
- GI50 (MDA-MB-231 breast): 603 nM
- TGI (MDA-MB-231 breast): 11800 nM
- GI50 (HCT-15 colon): 377 nM
- TGI (HCT-15 colon): 1500 nM
- GI50 (MCF7 breast): 304 nM
- TGI (MCF7 breast): 1640 nM
- GI50 (M14 melanoma): 440 nM
- TGI (M14 melanoma): 1470 nM
- GI50 (NCI/ADR-RES ovarian): 1620 nM
- TGI (NCI/ADR-RES ovarian): 8830 nM
- GI50 (PC-3 prostate): 274 nM
- TGI (PC-3 prostate): 3560 nM
- GI50 (RPMI-8226 leukemia): 101 nM
- TGI (RPMI-8226 leukemia): 354 nM
- GI50 (MDA-MB-435): 227 nM
- TGI (MDA-MB-435): 601 nM
- GI50 (MALME-3M melanoma): 399 nM
- TGI (MALME-3M melanoma): 1590 nM

Structure (SMILES): CSCC[C@H](NC(=O)[C@H](CC(C)C)NC(=O)[C@H](Cc1c[nH]cn1)NC(=O)CNC(=O)C1N(C(=O)[C@@H](C)NC(=O)[C@H](Cc2c[nH]c3ccccc23)NC(=O)[C@H](CCC(N)=O)NC(=O)[C@@H](N)CC(N)=O)CSC1(C)C)C(N)=O (stereo not given in full) (H-NQW[dA][ξThz(5,5-Me2)]GHLM-NH2)
- TGI (UACC-257 melanoma): > 25000 nM
- TGI (NCI-H23 lung): > 25000 nM
- TGI (NCI-H226 lung): > 25000 nM
- TGI (HOP-92 NSCLC): > 25000 nM

Structure (SMILES): COc1cc(OC)cc(-c2ccc(-c3ccc(C(=N)N)cc3)s2)c1
- GI50 (DU-145 prostate): 1770 nM
- TGI (DU-145 prostate): 3240 nM
- GI50 (HL-60(TB) leukemia): 1900 nM
- TGI (HL-60(TB) leukemia): 3740 nM
